Measurements as given in patent publication US20040266811A1, “Methods for inducing regeneration, remyelination, and hypermyelination of nervous tissue” (priority 2002, published 2004).
Entries after “also recorded” stand apart in the source; their conditions may differ.

Experiments:
DRG explants = assay: DRG explant neurite outgrowth with anti-NGF neutralizing antibodies or MEK1 inhibitor; type: cell-based, C57B1/6 mice; conditions: DRGs cultured in 1 μM GM-284 plus inhibitor
Description: (A) DRGs were prepared and cultured as above, except that either the MEK1 inhibitor, PD 098059, or NGF-neutralizing antibodies were included in cultures treated with either NGF or GM-284. Maximal response was determined to be the extent of neurite outgrowth when DRGs were cultured in NGF alone (spotted bars) or in 1 μM GM-284 (striped bars). As indicated, DRGs were treated with either NGF or GM-284, in the presence of either 0.25 mg/ml anti-NGF neutralizing antibodies or PD 098059. […] DRGs were treated with 100 ng/ml NGF or 1 μM GM-284, for 30 min or 4 h, as indicated, and the detergent lysates were prepared and immunoblotted with anti-phospho-Erk monoclonal antibody. The p42 and p44 bands are indicated by arrowheads.
Explanted DRG ganglia were dissected from P1 to P3 C57B1/6 mice, as previously described (Weinstein et al., Targeted expression of an oncogenic adaptor protein v-Crk potentiates axonal growth in dorsal root ganglia and motor neurons in vivo. Brain Res. Dev. Brain Res., 116:29-39, 1999). Briefly, DRGs were dissected and placed in ice-cold PBS containing 2% glucose, then transferred onto polyornithine/laminin-coated tissue culture plates (Biocoat, Becton Dickinson Laboratories) in DMEM-plating medium overnight. The plating medium consisted of Dulbecco's minimal essential plating medium (DMEM) supplemented with 10% fetal calf serum (FCS; Hyclone), 0.6% glucose, 2 mM glutamine, 100 U/ml penicillin, 100 μg/ml streptomycin, and 20 mM HEPES. […] For experiments employing anti-NGF neutralizing antibodies, cultures were incubated with […] anti-NGF antiserum, and replaced every two days. Cultures were kept at 37° C., in 5% CO2, for up to 1 week, at which time the extent of well-defined neurite outgrowth was assessed.
Signaling by the neurotrophins, while mediated by different cell-surface receptors, converges on the extensively studied and well-characterized MAP kinase pathway. […] Therefore, the inventors explored the possibility that GM-284 might signal through NGF directly, or through the MAP kinase cascade. […]

[1] = system: purified sensory neurons from DRG; assay: Neurite outgrowth in purified (neuron-enriched) sensory neuron cultures; type: cell-based, E18 C57B1/6 mice; conditions: 1 μM GM-284, 6 days
Description: To generate neuron-enriched DRG cultures, DRGs were isolated from embryonic (E18) C57B1/6 mice, and processed in dissection media containing Hank's CMF saline, with 0.05% collagenase and 0.25% trypsin, for 30 min at 37° C. Neurons were obtained by trituration of ganglia with fire-polished Pasteur pipettes of decreasing diameter. Thereafter, the cellular suspension was washed twice in Dulbecco's modified Eagle medium supplemented with 10% fetal calf serum and 2% glucose. Freshly triturated neurons were incubated in 10% FCS-DMEM supplemented with 5-fluorouracil (Sigma, F-0503) and uridine (Sigma, U3003) for 48 h to remove non-neuronal proliferating cells, in the presence of either 100 ng/ml NGF or 1 μM GM-284. After 48 h, cultures were continued with these agents, but without mitotic inhibitors, for an additional 6 days.
DRG explants are complex tissues, containing both Schwann cells and neurons. Accordingly, it is possible that GM-284 acts to promote neurite outgrowth directly, by acting on neurons, or indirectly, by acting on adjacent Schwann cells, which then act to promote neuritogenesis. To differentiate these possibilities, sensory neurons from DRG were purified as described (Wood et al., Studies of the initiation of myelination by Schwann cells. Ann. NY Acad. Sci., 605:1-14, 1990), and contaminating Schwann cells were removed by treatment of the cultures with anti-mitotic drugs.

[2] = system: SCIP and Brn-5 expression in Schwann cells; assay: RNA (Northern) blot for SCIP and Brn-5 in Schwann cells; type: cell-based, Sprague-Dawley rats; conditions: 1 μM GM-284, 48 h, growth-factor-starved Schwann cells
Description: To further assess the ability of GM-284 to regulate these genes, Schwann cells were maintained in DMEM containing FCS, and without forskolin or GGF, for 48 h, to rest the cells. Thereafter, 1 μM GM-284 was added for an additional 48 h. Total RNA was isolated, run on a denaturing agarose gel, transferred to a nylon filter, and hybridized with probes complimentary to either SCIP (panel a) or Brn-5 (panel b). Cyclophilin RNA was probed as a loading control.
20 μg of total RNA was prepared as previously described (Wu et al., The POU gene brn-5 is induced by neuregulin and is restricted to myelinating Schwann cells. Mol. Cell Neurosci., 17:683-95, 2001). Thereafter, total RNA was separated on 1% MOPS-formaldehyde agarose gels, transferred to MAGNA nylon transfer membrane (MSI), UV cross-linked (120 mJ/cm 2) using a UV crosslinker (FB-UVXL-1000, Fisher Biotech), and hybridized with ^32P-dCTP random-labeled (RTS RadPrime DNA Labeling System, Gibco BRL), probes purified by Sephadex G-50 column (Pharmacia, Peapack, N.J.).
The Brn-5 probe contains the rat Brn-5 coding region (generated by PCR), and was kindly provided by Dr. Bogi Andersen at the University of California at San Diego. This probe is 93% identical to the mouse Brn-5 mRNA. The SCIP probe was a 1.10-kb SmaI cDNA fragment from mouse SCIP DNA. […]

CCC(C)(C)C(=O)C(=O)N1CCC[C@H]1c1nnc([C@@H]2CCCN2C(=O)C(=O)C(C)(C)CC)o1 [GM-284]
effect of anti-NGF / MEK1 inhibition on GM-284-mediated neurite outgrowth (DRG explants): NGF- and MEK1-independent
neurite outgrowth in purified neuronal cultures [1]: complete failure to elaborate processes; also recorded: failed to promote axonogenesis; also recorded: no neurite outgrowth
SCIP and Brn-5 RNA expression relative to vehicle-treated cells [2]: significantly induced; also recorded: induces Schwann cell expression of SCIP (Oct-6) and Brn-5
